Data set [1] is described as follows: Effective half life in rat. In kind it is ADME, organism-based. Particulars: in vivo, read-out: t1/2eff (converted).
Data set [2] in a line: Plasma clearance in rat. The data set is classed as ADME, organism-based.
The nature of data set [3]: Fraction unbound in rat plasma. In kind it is ADME, cell-free.
Data set [4] is described as follows: Bioavailability in rat. As to conditions: in vivo. The data set is classed as ADME, organism-based.

On to `CC(C)Oc1ccc2[nH]nc(-c3cc(N4C[C@@H](C)O[C@@H](C)C4)ncn3)c2c1`, for which the half-life in data set [1] is 34.2 min. For the same compound, the clearance in data set [2] turned out to be 64 mL/min/kg. In addition, the fraction unbound in data set [3] is 0.017. Also, the bioavailability in data set [4] is 25%.

For `C[C@H]1CN(c2cc(-c3n[nH]c4ccc(OC5(C)CC5)cc34)ncn2)CCO1`, in data set [1], the half-life is 31.2 min. The same compound registered a clearance in data set [2] of 69 mL/min/kg. The free fraction (fraction unbound) in data set [3] was 0.019. In addition, the bioavailability in data set [4] came out at 32%.

Consider `CC1(Oc2ccc3[nH]nc(-c4cc(N5CCO[C@@H](CO)C5)ncn4)c3c2)CC1`, for which the half-life in data set [1] was 29.4 min. Also, in data set [2], the clearance was 78 mL/min/kg. The same compound yielded a fraction unbound in data set [3] of 0.051. The compound also gave a bioavailability in data set [4] of 36%.

On to `CC(C)Oc1cc2c(-c3cc(N4C[C@@H](C)O[C@@H](C)C4)ncn3)n[nH]c2cc1F`, for which the half-life in data set [1] was 56.4 min. In data set [2], this compound had a clearance of 65 mL/min/kg. In addition, in data set [3], the fraction unbound was determined as 0.008. Moreover, the bioavailability in data set [4] is 20%.

Values taken from ChEMBL document CHEMBL4145628, “Strategy for Extending Half-life in Drug Design and Its Significance” (ACS Med Chem Lett, 2018).
